Measured values as given in patent US7576099B2, “Amide derivatives as ion-channel ligands and pharmaceutical compositions and methods of using the same” (Renovis, Inc., priority 2005, dated 2009).

Tests used:
VR1 [1] = target: T1, VR1 (Homo sapiens, UniProt Q8NER1); assay: Acid stimulation assay (FDSS 6000, intracellular calcium); type: cell-based; parameters: host or cells: only 'the cell suspension' is mentioned; details: final assay buffer pH5.8, 15 minutes pre-incubation
Procedure: The Acid-induced changes in the intracellular calcium concentration were monitored using FDSS 6000 (Hamamatsu Photonics, Japan), a fluorometric imaging system. The cell suspension in resting buffer (HBSS supplemented with 10 mM HEPES, pH 7.4) was pre-incubated with varying concentrations of the test compounds or resting buffer (buffer control) for 15 minutes at room temperature under dark conditions. The cells were automatically added the stimulating solution (HBSS supplemented with MES, final assay buffer pH5.8) by the FDSS 6000.
Target sequence in this assay (Q8NER1 whole entry, species assumed): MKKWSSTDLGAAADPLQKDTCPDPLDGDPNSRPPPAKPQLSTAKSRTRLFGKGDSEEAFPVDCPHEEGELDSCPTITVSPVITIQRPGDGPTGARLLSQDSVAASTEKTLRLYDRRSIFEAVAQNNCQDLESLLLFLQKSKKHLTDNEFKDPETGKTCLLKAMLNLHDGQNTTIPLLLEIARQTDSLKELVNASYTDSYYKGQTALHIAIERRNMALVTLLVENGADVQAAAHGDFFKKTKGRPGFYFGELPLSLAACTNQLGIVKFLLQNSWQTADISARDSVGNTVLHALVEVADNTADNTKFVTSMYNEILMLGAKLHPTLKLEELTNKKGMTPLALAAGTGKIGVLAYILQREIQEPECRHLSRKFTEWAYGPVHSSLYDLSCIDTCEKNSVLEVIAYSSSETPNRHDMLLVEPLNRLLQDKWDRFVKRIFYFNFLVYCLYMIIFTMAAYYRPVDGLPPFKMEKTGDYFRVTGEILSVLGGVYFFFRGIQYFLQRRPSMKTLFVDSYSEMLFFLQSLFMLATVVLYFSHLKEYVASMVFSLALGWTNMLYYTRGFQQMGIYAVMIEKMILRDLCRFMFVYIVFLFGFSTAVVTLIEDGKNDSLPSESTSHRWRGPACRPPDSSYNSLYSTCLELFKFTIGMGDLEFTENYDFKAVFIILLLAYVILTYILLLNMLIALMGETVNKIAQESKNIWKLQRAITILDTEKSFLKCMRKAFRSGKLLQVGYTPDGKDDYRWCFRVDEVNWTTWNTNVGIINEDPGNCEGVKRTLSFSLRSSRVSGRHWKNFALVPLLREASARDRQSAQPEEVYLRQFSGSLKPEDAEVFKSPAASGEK

VR1 [2] = target: T1, VR1; assay: Calcium uptake assay (Fura2, Flex Station) in HEK 293 cells expressing hVR1; type: cell-based; parameters: expressed in transfected cells; host or cells: T-REx HEK 293 (Invitrogen), pcDNA5/TO vector, doxycycline induced; details: for inhibition at 0.3 µM: HEK293, read-out: Low pH % Inhib. @ 0.3 μM; for inhibition of the Capsaicin induced intracellular calcium response (FIGS. 2-6): 3 nM compound, capsaicin as agonist, calcium uptake assay method
Target sequence in this assay (Q8NER1 whole entry): as the sequence (Q8NER1 whole entry, species assumed) above

[3] = Half-life in human liver microsomes (HLM); type: in vitro ADME; details: human liver microsomes (HLM, HL101), pH 7.4, 1 μM compound, 0.78 mg/mL HLM, NADPH, 37° C.
Procedure: Test compounds (1 μM) were incubated with 3.3 mM MgCl2 and 0.78 mg/mL HLM (HL101) in 100 mM potassium phosphate buffer (pH 7.4) at 37° C. on the 96-deep well plate. The reaction mixture was split into two groups, a non-P450 and a P450 group. NADPH was only added to the reaction mixture of the P450 group. An aliquot of samples of P450 group was collected at 0, 10, 30, and 60 min time point, where 0 min time point indicated the time when NADPH was added into the reaction mixture of P450 group. An aliquot of samples of non-P450 group was collected at −10 and 65 min time point. Collected aliquots were extracted with acetonitrile solution containing an internal standard. The precipitated protein was spun down in centrifuge (2000 rpm, 15 min). The compound concentration in supernatant was measured by LC/MS/MS system.
The half-life value was obtained by plotting the natural logarithm of the peak area ratio of compounds/internal standard versus time. The slope of the line of best fit through the points yields the rate of metabolism (k). […]
Exemplary compounds of the invention were tested (1 μM), and were incubated with 3.3 mM MgCl2 and 0.78 mg/mL HLM (HL101) in 100 mM potassium phosphate buffer (pH 7.4) at 37° C. on the 96-deep well plate. […] The compound concentration in supernatant was measured by LC/MS/MS system. […]

VR1 receptor = assay: Calcium imaging assay in DRG neurons (Example 1); type: cell-based; details: 3 nM compound
Procedure: Therefore the functional activity of compounds at the VR1 receptor may be determined by measuring changes in intracellular calcium levels in neurons such as the dorsal root ganglion. […] Prior to assay, cells were loaded with 5 μg/ml Fura2 in normal saline solution at 37° C. for 40 minutes. Cells were then washed with normal saline to remove dye before commencement of the experiment. The plated neurons were transferred into a chamber on the stage of a Nikon eclipse TE300 microscope after which neurons were allowed to attain a stable fluorescence for about 10 minutes before beginning the experiment. The assay consists of two stages, a pretreatment phase followed by a treatment phase. First, a solution of the test compound was added from a multivalve perfusion system to the cells for 1 minute (pretreatment). […] Fura2 was excited at 340 and 380 nm to indicate relative calcium ion concentration. Changes in wavelength measurements were made throughout the course of the experiment. The fluorescence ratio was calculated by dividing fluorescence measured at 340 nm by that at 380 nm. Data were collected using Intelligent Imaging's Slidebook software.

[4] = 0.3 μM compound, low pH (protons) as agonist, HEK 293 cells expressing hVR1

O=C(Nc1ccc2c(c1)OCC(CO)O2)c1ccc(/C=C/C(F)(F)F)cc1 (single isomer, unassigned) [Compound 108]
IC50 (VR1 [1]): 5 nM

CC(C)(C)C#Cc1ccc(C(=O)Nc2cnc3ccccc3c2)cn1 [Compound 24]
inhibition at 0.3 µM (VR1 [2]; [4]): 101%

O=C(Nc1cccc2cnccc12)c1ccc(C#CC(F)(F)F)cc1 [Compound 45]
inhibition of the Capsaicin induced intracellular calcium response (FIGS. 2-6) (VR1 [2]): significant inhibition

O=C1COc2ccc(NC(=O)c3ccc(/C=C/C(F)(F)F)cc3)cc2N1 [Compound 57]
inhibition at 0.3 µM (VR1 [2]; [4]): 58%

CC1(C)Oc2ccc(NC(=O)c3ccc(/C=C/C(F)(F)F)cc3)cc2NC1=O [Compound 58]
inhibition at 0.3 µM (VR1 [2]; [4]): 19%

CN1CCC(C)(C)c2ccc(NC(=O)c3ccc(C#CC(C)(C)C)cc3)cc21 [Compound 59]
inhibition at 0.3 µM (VR1 [2]; [4]): 83%

CC(C)(C)C#Cc1ccc(C(=O)Nc2cccc3cnccc23)cc1OCCN1CCOCC1 [Compound 60]
half-life at 1 μM [3]: 21 min | inhibition at 0.3 µM (VR1 [2]; [4]): 69%

O=C1COc2cc(NC(=O)c3ccc(/C=C/C(F)(F)F)cc3)ccc2N1 [Compound 61]
inhibition at 0.3 µM (VR1 [2]; [4]): 10%

O=C(Nc1ccc2c(c1)NCCO2)c1ccc(/C=C/C(F)(F)F)cc1 [Compound 62]
inhibition at 0.3 µM (VR1 [2]; [4]): 14%

O=C(Nc1ccc2c(c1)OCCN2)c1ccc(/C=C/C(F)(F)F)cc1 [Compound 63]
half-life at 1 μM [3]: 24 min | inhibition at 0.3 µM (VR1 [2]; [4]): 123%

CC1(C)CNc2cc(NC(=O)c3ccc(/C=C/C(F)(F)F)cc3)ccc2O1 [Compound 64]
inhibition at 0.3 µM (VR1 [2]; [4]): 10%

O=C(Nc1ccc2c(c1)OCCN2)c1ccc(C#CC(F)(F)F)cc1 [Compound 70]
Low pH % Inhib. @ 0.3 μM (VR1 [2]; [4]): 185% | IC50 (VR1 [1]): 5 nM

O=C(Oc1ccc2c(c1)OC(CO)CO2)c1ccc(C#CC2CC2)cc1 (stereo not drawn) [Compound 86]
inhibition at 0.3 µM (VR1 [2]; [4]): 83%

O=C(Oc1ccc2c(c1)OCC(CO)O2)c1ccc(C#CC2CC2)cc1 (stereo not drawn) [Compound 87]
inhibition at 0.3 µM (VR1 [2]; [4]): 98%

C/C(=C\C(F)(F)F)c1ccc(C(=O)Nc2ccc3c(c2)OCCN3)cc1 [Compound 96]
inhibition of the Capsaicin induced intracellular calcium response (FIGS. 2-6) (VR1 [2]): significant inhibition

Cc1cc2c(NC(=O)c3ccc(/C=C/C(F)(F)F)cc3)cccc2nn1 [Compound 113]
inhibition at 0.3 µM (VR1 [2]; [4]): 9%

Cc1cc(C#CC(C)(C)C)ccc1C(=O)Nc1ccc2c(c1)OCC(CO)N2 (stereo not drawn) [Compound 167]
inhibition of the Capsaicin induced intracellular calcium response (FIGS. 2-6) (VR1 [2]): significant inhibition

Cc1cc(/C=C/C(F)(F)F)ccc1C(=O)Nc1cnc2ccccc2c1 [Compound 187]
inhibition of the Capsaicin induced intracellular calcium response (FIGS. 2-6) (VR1 [2]): significant inhibition

Cc1cc(/C=C/C(F)(F)F)ccc1C(=O)Nc1cnc2c(c1)OCC(O)CN2 (stereo not drawn) [Compound 189]
inhibition at 0.3 µM (VR1 [2]; [4]): 87%

Cc1cc(/C=C/C(F)(F)F)ccc1C(=O)Nc1ccc2sc(CO)nc2c1 [Compound 225]
inhibition of the Capsaicin induced intracellular calcium response (FIG. 1) (VR1 receptor): significant inhibition | inhibition of the Capsaicin induced intracellular calcium response (FIG. 1) (VR1 receptor; listed as compound 225): reduced | % inhibition of capsaicin induced calcium influx (VR1 receptor; treatment time 20 sec, capsaicin 250 nM): >75%

Cc1cc(/C=C/C(F)(F)F)ccc1C(=O)NC1=CC2CNCCC2N=C1 (stereo not drawn) [Compound 229]
inhibition at 0.3 µM (VR1 [2]; [4]): 54%

Cc1cc(/C=C/C(F)(F)F)ccc1C(=O)Nc1cnc2c(c1)OCC(CO)N2 (stereo not drawn) [Compound 233]
inhibition of the Capsaicin induced intracellular calcium response (FIGS. 2-6) (VR1 [2]): significant inhibition
